Columns and labels:
Panc-1 cells [1] = test: Propidium iodide-based fluorescence cytotoxicity assay; assay type: cell-based; conditions: single agent
Protocol: The combination of P276-00 and Gemcitabine was screened for its synergistic effect in Panc-1 cells using propidium iodide based fluorescence cytotoxicity assay.
Test System: The Panc-1 cell line was procured from ATCC (American Tissue type Culture Collection), USA. Catalog number: CRL-1469 and the frozen vial was stored in liquid nitrogen container. Propidium iodide dye was procured from Sigma-Aldrich, USA. Catalog number: P-4170-100 mg and it was stored at 2-8° C.
Method: Panc-1 cells were seeded at a density of 2000 cells/well, in a 200 μL in tissue culture grade 96 well plate and allowed to recover for 24 hrs in a humidified 5%±0.2 CO2 incubator at 37° C.±0.5° C. After 24 hrs, 1 μL of 200 X (200 times higher than required concentration is denoted as 200×) compound (dissolved in neat DMSO), as per Table 1 or 2 was added to the wells. The final DMSO concentration was 0.5% in wells. The plate was incubated for 24 hrs in humidified 5%±0.2 CO2 incubator at 37±0.5° C.
After 24 hrs Minimum Essential Medium (MEM) from the Gemcitabine treated wells was removed and washed two times with fresh MEM and followed by addition of 200 μL of fresh MEM per well. 1 μL of 200× (200 times higher than required concentration is denoted as 200×) compound (dissolved in neat DMSO) was then added as per the Table 1 and 2 designs. The final DMSO concentration was 0.5% in wells which also served as the vehicle control for the study. After 72 hrs the plate was removed from CO2 incubator and spent MEM aspirated from the wells and supplemented with fresh MEM. This was followed by addition of 25 μL of propidium iodide (50 μg/ml in medium) per well. The same plate was frozen at −80° C. for 24 hrs and then thawed and allowed to come to room temperature. The fluorescence at a wavelength of 530 nm excitation and 620 nm emission was read.
The percent cytotoxicity was calculated using the following formula

Panc-1 cells [2] = test: Microarray gene expression analysis; assay type: cell-based, human; conditions: Panc-1, microarray
From the text: The goal of the microarray analysis was to evaluate putative gene expression signatures associated with the in vitro synergistic effect of the combination therapy of Gemcitabine with […]-00 in Panc-1 cells. The time points (3 hrs, 6 hrs, 12 hrs) were chosen to establish early molecular changes in the transcription profile for probable biomarkers and mechanism of action for the combination therapy. Approximately 20 million cells were lysed in Trizol Reagent (Invitrogen Corp, USA) and passed through a 21-gauge needle for 5-10 times before RNA extraction was performed. Total RNA extraction was performed using the RNeasy Mini kit (Qiagen, USA) according to the manufacturer's protocol. The final total RNA was eluted in nuclease-free water and the concentration/purity was determined by Nanodrop spectrophotometer (Thermo Fisher Scientific, Delaware, USA). cDNA generation and labeling: 20 μg of total RNA was reverse transcribed using amino allyl dUTP and oligo dT, the resulting cDNA was indirectly labeled with Cy3/Cy5 dyes (GE Healthcare, USA) using a fluorescent labeling kit (Promega Biosciences, USA). The concentration and dye incorporation of the labeled products were determined by Nanodrop spectrophotometer (Thermo Fisher Scientific, Delaware, USA). Equal amounts of labeled cDNA were denatured at 95° C. for 5 mins, cooled and microfuged at 13200 rpm for 5 mins before hybridization. Array fabrication and hybridization: 70-mer transcript oligonucleotides representing 36,480 human genes was purchased from Operon Biotechnologies (Germany) and spotted onto aminosilane coated glass slides (ArrayIt, USA) by contact printing using a Omnigrid (OG100) spotter (Genomic Solutions Inc, USA). Post printing, the slides were cross-linked with UV light at […], vacuumed, sealed and stored in the dark. The slides were pre-processed for background reduction using Pronto (Promega Life sciences, USA) pre-hyb kit as per the manufacturer's instructions. Hybridization was carried out in the GeneTAC Hybstation (Genomic Solutions Inc, USA) for 18 hrs. The hybridization protocol is as follows: 6 hrs at 42° C. (with agitation), 6 hrs at 35° C. (with agitation), and 6 hrs at 30° C. (with agitation). Post hybridization, the arrays were washed according to the manufacturer's protocol. The slides were dried by centrifugation at 1600 rpm for 5 mins. Scanning and image analysis: Post drying, the slides were scanned in a laser scanner (Genomic Solutions, USA) for Cy3 and Cy5 detection. The PMT settings were adjusted using the auto-exposure feature of the scanner. The TIFF files thus generated were exported to GeneTAC Integrator software (Genomic Solutions, USA) for image analysis. The resultant CSV file containing the annotated genome and the corresponding ratios were further used for data analysis.

Panc-1 cells [3] = test: Protein expression using high content cell imaging system, and efficacy score; assay type: cell-based; conditions: for Efficacy score: cumulative over proteins of Table 7
Method: The data was generated using cell imaging system, where, cells after drug exposure were treated with protein specific antibody, followed by detection markers for the antibody. The images were generated and protein levels quantitated as an indication of drug effect.
Methodology: Panc-1 cells were seeded at a density of 5000 cells per well in 96 well plates and allowed recovery for 24 hrs in 5% CO2 incubator. After recovery, cells were challenged with Gemcitabine (IC30) for 24 hrs. After 24 hrs Gemcitabine was removed and fresh medium was added. […] The combination efficacy was identified against single treatments. At the end of the experiment Panc-1 cells were fixed and permeabilized. All the primary antibodies were added at a concentration according to manufacture protocol. After one hour incubation the cells were washed three times and labeled with secondary antibodies tagged with Dye Light 548 and nucleus was stained with Hoechest3342. After antibody labeling, cells were stained with the Cellomics whole Cell Stain Green to identify the cell's cytoplasmic area. Then all the plates were scanned in Cellomics ArrayScan® VTI HCS Reader. The results were analyzed using software that is designed for measuring the read from the imaging system.
Expression of proteins listed in Table 7 were determined in terms of fluorescence unit obtained by using target activation algorithm from High content imaging system from Cellomics. • Protein expression data expressed as fluorescent units from Table 7 were used to generate expression ratio by comparing drug treatments (individual or combination) against the normal control with no drug treatment. The ratio of expression which is considered as dys-regulation (1.5 fold above or below the range for up-regulation and down regulation respectively) is subtracted from the normal range (±1.5) and is used to measure the efficacy score.
Expression ratio=protein expression during drug treatment/protein expression under normal control.
Efficacy score =Cumulative score (expression ratio−±1.50) for all proteins.

[4] = 6 hours post treatment, control 3
[5] = 36 hours post treatment, control 98

In the case of CN1CC[C@@H](c2c(O)cc(O)c3c(=O)cc(-c4ccccc4Cl)oc23)[C@@H]1CO.Cl (relative stereo) [P276-00, (+)-trans-2-(2-Chloro-phenyl)-5,7-dihydroxy-8-(2-hydroxy-methyl-1-methyl-pyrrolidin-3-y1)-chromen-4-one hydrochloride], the “% Cytotoxicity” value (Panc-1 cells [1]; 60 nM) is reported as 27%, the “% Cytotoxicity” value (Panc-1 cells [1]; 120 nM) is reported as 33% and the “% Cytotoxicity” value (Panc-1 cells [1]; 240 nM) is reported as 35%. For the same molecule, the “% Cytotoxicity” value (Panc-1 cells [1]; 480 nM) was 45%, the “% Cytotoxicity” value (Panc-1 cells [1]; 960 nM) was 58% and the “CDK8 gene expression value (log value of intensities)” value (Panc-1 cells [2]) was 0.16. For the same molecule, the “DICER1 gene expression value (log value of intensities)” value (Panc-1 cells [2]) was 0.14, the “DLG5 gene expression value (log value of intensities)” value (Panc-1 cells [2]) was 0.25 and the “DNAI1 gene expression value (log value of intensities)” value (Panc-1 cells [2]) was −0.20. The “FA38A gene expression value (log value of intensities)” value (Panc-1 cells [2]) was −0.93, the “FGF5 gene expression value (log value of intensities)” value (Panc-1 cells [2]) was 0.23 and the “HELLS gene expression value (log value of intensities)” value (Panc-1 cells [2]) was 0.62. For the same molecule, the “HIST1H2BO gene expression value (log value of intensities)” value (Panc-1 cells [2]) was −0.39, the “ID1 gene expression value (log value of intensities)” value (Panc-1 cells [2]) was 0.18 and the “MKKS gene expression value (log value of intensities)” value (Panc-1 cells [2]) was −0.08. For the same molecule, the “PPIL4 gene expression value (log value of intensities)” value (Panc-1 cells [2]) was 0.30, the “RRM2 gene expression value (log value of intensities)” value (Panc-1 cells [2]) was −0.14 and the “SLC19A2 gene expression value (log value of intensities)” value (Panc-1 cells [2]) was 0.97. For the same molecule, the “SNX7 gene expression value (log value of intensities)” value (Panc-1 cells [2]) was −0.12, the “TMPRSS3 gene expression value (log value of intensities)” value (Panc-1 cells [2]) was 0.33 and the PTN protein expression (Panc-1 cells [3]; 6 hours post treatment, control 1) was 2 fluorescence units. It also gave a GADD45-α protein expression (Panc-1 cells [3]; [4]) of 10 fluorescence units, an ID1 protein expression (Panc-1 cells [3]; [4]) of 1 fluorescence units and a P27 protein expression (Panc-1 cells [3]; 6 hours post treatment, control 6) of 7 fluorescence units. It also gave a CDC25B protein expression (Panc-1 cells [3]; 6 hours post treatment, control 7) of 2 fluorescence units, a CDKN2A protein expression (Panc-1 cells [3]; 6 hours post treatment, control 8) of 76 fluorescence units and a CCND1 protein expression (Panc-1 cells [3]; 6 hours post treatment, control 74) of 84 fluorescence units. It also gave a GAPDH protein expression (Panc-1 cells [3]; 6 hours post treatment, control 80) of 96 fluorescence units, a CASP3 protein expression (Panc-1 cells [3]; 6 hours post treatment, control 147) of 152 fluorescence units and an MMP-1 protein expression (Panc-1 cells [3]; 6 hours post treatment, control 501) of 618 fluorescence units. It also gave a COX15 protein expression (Panc-1 cells [3]; 6 hours post treatment, control 627) of 907 fluorescence units, a COX2 protein expression (Panc-1 cells [3]; 6 hours post treatment, control 635) of 406 fluorescence units and a BAX protein expression (Panc-1 cells [3]; 6 hours post treatment, control 819) of 700 fluorescence units. For the same molecule, the VEGF protein expression (Panc-1 cells [3]; 6 hours post treatment, control 829) was 618 fluorescence units, the BCL2 protein expression (Panc-1 cells [3]; 6 hours post treatment, control 830) was 376 fluorescence units and the pRB protein expression (Panc-1 cells [3]; 6 hours post treatment, control 1240) was 1540 fluorescence units. The Efficacy score (Panc-1 cells [3]; 6 hours) was 4.7, the GADD45-α protein expression (Panc-1 cells [3]; 16 hours post treatment, control 13) was 23 fluorescence units and the CDC25B protein expression (Panc-1 cells [3]; 16 hours post treatment, control 54) was 15 fluorescence units. For the same molecule, the CDKN2A protein expression (Panc-1 cells [3]; 16 hours post treatment, control 64) was 9 fluorescence units, the P27 protein expression (Panc-1 cells [3]; 16 hours post treatment, control 67) was 12 fluorescence units and the PTN protein expression (Panc-1 cells [3]; 16 hours post treatment, control 76) was 12 fluorescence units. It also gave an ID1 protein expression (Panc-1 cells [3]; 16 hours post treatment, control 77) of 18 fluorescence units, a CCND1 protein expression (Panc-1 cells [3]; 16 hours post treatment, control 90) of 46 fluorescence units and a GAPDH protein expression (Panc-1 cells [3]; 16 hours post treatment, control 100) of 100 fluorescence units. For the same molecule, the CASP3 protein expression (Panc-1 cells [3]; 16 hours post treatment, control 202) was 607 fluorescence units, the VEGF protein expression (Panc-1 cells [3]; 16 hours post treatment, control 579) was 264 fluorescence units and the BCL2 protein expression (Panc-1 cells [3]; 16 hours post treatment, control 644) was 81 fluorescence units. For the same molecule, the BAX protein expression (Panc-1 cells [3]; 16 hours post treatment, control 711) was 644 fluorescence units, the COX15 protein expression (Panc-1 cells [3]; 16 hours post treatment, control 718) was 852 fluorescence units and the MMP-1 protein expression (Panc-1 cells [3]; 16 hours post treatment, control 929) was 264 fluorescence units. It also gave a COX2 protein expression (Panc-1 cells [3]; 16 hours post treatment, control 1109) of 375 fluorescence units, a pRB protein expression (Panc-1 cells [3]; 16 hours post treatment, control 2583) of 1400 fluorescence units and an Efficacy score (Panc-1 cells [3]; 16 hours) of 10.8. The GADD45-α protein expression (Panc-1 cells [3]; 36 hours post treatment, control 19) was 31 fluorescence units, the P27 protein expression (Panc-1 cells [3]; 36 hours post treatment, control 96) was 5 fluorescence units and the CCND1 protein expression (Panc-1 cells [3]; [5]) was 25 fluorescence units. It also gave a CDC25B protein expression (Panc-1 cells [3]; [5]) of 4 fluorescence units, a GAPDH protein expression (Panc-1 cells [3]; [5]) of 2 fluorescence units and an ID1 protein expression (Panc-1 cells [3]; [5]) of 6 fluorescence units. The PTN protein expression (Panc-1 cells [3]; 36 hours post treatment, control 100) was 100 fluorescence units, the CASP3 protein expression (Panc-1 cells [3]; 36 hours post treatment, control 265) was 670 fluorescence units and the BAX protein expression (Panc-1 cells [3]; 36 hours post treatment, control 715) was 1120 fluorescence units. The COX15 protein expression (Panc-1 cells [3]; 36 hours post treatment, control 722) was 1327 fluorescence units, the VEGF protein expression (Panc-1 cells [3]; 36 hours post treatment, control 1093) was 355 fluorescence units and the MMP-1 protein expression (Panc-1 cells [3]; 36 hours post treatment, control 1316) was 355 fluorescence units. It also gave a BCL2 protein expression (Panc-1 cells [3]; 36 hours post treatment, control 1410) of 374 fluorescence units, a CDKN2A protein expression (Panc-1 cells [3]; 36 hours post treatment, control 1441) of 707 fluorescence units and a pRB protein expression (Panc-1 cells [3]; 36 hours post treatment, control 2840) of 1657 fluorescence units. For the same molecule, the Efficacy score (Panc-1 cells [3]; 36 hours) was 11.1.
